In PubChem BioAssay (NCI):
Where “and” joins values, the source holds several entries; their conditions need not be identical. Identical values can stand only once.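 In this assay, cells in 96-well plates receive the compound at five concentrations for 48 hours. Endpoints are linearly interpolated between the surrounding concentrations. GI50: concentration for 50% inhibition of growth. TGI denotes the concentration required for complete inhibition of growth.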

Assays:
Experiment in all cases: NCI tumour cell line growth inhibition, 48 h
TK-10 renal = system: TK-10 renal
K-562 leukemia = system: K-562 leukemia
NCI-H522 lung = system: NCI-H522 lung
SK-MEL-5 melanoma = system: SK-MEL-5 melanoma
MDA-MB-231 breast = system: MDA-MB-231 breast
DU-145 prostate = system: DU-145 prostate
MCF7 breast = system: MCF7 breast
EKVX NSCLC = system: EKVX NSCLC
CCRF-CEM leukemia = system: CCRF-CEM leukemia
UACC-62 melanoma = system: UACC-62 melanoma

| Structure (SMILES) | TGI (TK-10 renal) | TGI (K-562 leukemia) | TGI (NCI-H522 lung) | TGI (SK-MEL-5 melanoma) | TGI (MDA-MB-231 breast) | TGI (DU-145 prostate) | TGI (MCF7 breast) | TGI (EKVX NSCLC) | TGI (CCRF-CEM leukemia) | TGI (UACC-62 melanoma) | GI50 (MDA-MB-231 breast) |
| --- | --- | --- | --- | --- | --- | --- | --- | --- | --- | --- | --- |
| C=CCSC1=N/C(=C\c2ccc(Cl)cc2)C(=O)N1CC=C | > 100 µM | > 100 µM | 79.9 µM | 31 µM | > 100 µM | > 100 µM | 46.2 µM | 57.3 µM | 51.8 µM | > 100 µM |  |
| CC(C)(C)c1ccc(OCCOc2ccc(C(C)(C)C)cc2N)c(N)c1 | > 100 µM | > 100 µM | > 100 µM | > 100 µM | > 100 µM | > 100 µM | > 100 µM | > 100 µM | > 100 µM | > 100 µM |  |
| COc1ccc(N2C(=O)C3c4[nH]c5ccc(OCc6ccccc6)cc5c4C4CCC(c5ccccc5)CC4C3C2=O)cc1 (stereo unspecified) | 42.2 µM | 12 µM | > 44.6 µM | > 93.7 µM | 27.3 µM | > 100 µM | > 75 µM | 38.2 µM | 26.8 µM | 29 µM |  |
| S=C1c2ccc(Cl)cc2-n2cnnc2C2CSCN12 (stereo unspecified) | > 100 µM | 27.7 µM | > 100 µM | > 100 µM | > 100 µM | > 100 µM | > 100 µM | > 100 µM | > 100 µM | > 100 µM |  |
| N#CN1C2CCC1CC(=O)C2 | > 100 µM | > 100 µM | > 100 µM | > 100 µM | > 100 µM | > 100 µM | > 100 µM | > 100 µM | > 100 µM | > 100 µM |  |
| CC(=O)c1c(-c2cccc3ccccc23)c(C#N)c(=S)n(C2OC(CO)C(O)C(O)C2O)c1C (stereo unspecified) | > 100 µM | > 100 µM | > 100 µM | > 100 µM | > 100 µM | > 100 µM | > 100 µM | 32.4 µM | > 100 µM | > 100 µM | > 100 µM and 37.5 µM |
| CC(=O)Nc1ccc2c(C)c3c(nc2n1)[nH]c1ccccc13 | > 100 µM | > 100 µM | 53.2 µM | 28 µM | > 100 µM | > 100 µM | > 100 µM | 98.1 µM | > 100 µM | 60.9 µM |  |
| O=C(O)CN(CC(=O)O)C1CCCCC1N1CC(=O)OC(=O)C1 (stereo unspecified) | > 100 µM | > 100 µM | > 100 µM | > 100 µM | > 100 µM | > 100 µM | > 100 µM | > 100 µM | > 100 µM | > 100 µM |  |
| O=C(O)CC(Cc1ccccc1Cl)C(=O)O (stereo unspecified) | > 100 µM | > 100 µM | > 100 µM | > 100 µM | > 100 µM | > 100 µM | > 100 µM | > 100 µM | > 100 µM | > 100 µM |  |
| Cc1cc(C)nc(NS(=O)(=O)c2ccc(NC(=O)c3c4ccccc4nc4ccccc34)cc2)n1 | > 100 µM | > 100 µM | > 100 µM | > 100 µM | > 100 µM | > 100 µM | > 100 µM | > 100 µM | > 100 µM | > 100 µM |  |
| COc1ccc([C@H]2[C@H]3COC(=O)[C@H]3C(C#N)=C3Sc4ccccc4N32)cc1 | > 100 µM | > 100 µM | > 68.2 µM | > 57.3 µM | > 67.2 µM | 69.7 µM | > 100 µM | > 100 µM | 47.7 µM | > 100 µM |  |
| CCN(CCCOc1ccccc1)CCN(CC)CCCOc1ccccc1 | 27.1 µM | 15.5 µM | 28.9 µM | 5.44 µM | 39.7 µM | 23.9 µM | 57.3 µM | 28.9 µM | > 100 µM | 36.7 µM |  |
| OC1[C@@H]2[C@@H](O)CCCN2C[C@@H](O)[C@H]1O (stereo partly specified) | > 100 µM | > 100 µM | > 100 µM | > 100 µM | > 100 µM | > 100 µM | > 100 µM | > 100 µM | > 100 µM | > 100 µM |  |
| C=CCOC(=O)N1c2ccc(O[Si](C)(C)C(C)(C)C)cc2[C@@]23O[C@@]24[C@@H]1C#C/C=C\C#C[C@]3(O)C(OC)(OC)C[C@@H]4C | > 100 µM | > 100 µM | > 100 µM | > 100 µM | > 100 µM | > 100 µM | > 92.4 µM | > 100 µM | > 100 µM | > 42 µM |  |
| O=c1[nH]cc(NCCCl)c(=O)[nH]1 | > 100 µM | > 100 µM | > 100 µM | > 100 µM | > 100 µM | > 100 µM | > 100 µM | > 100 µM | > 100 µM | > 100 µM |  |
| O=C(O)CCc1nc2c(n1-c1ccccc1)C(=O)c1ccccc1C2=O | > 100 µM | > 100 µM | > 100 µM | > 100 µM | > 100 µM | > 100 µM | > 100 µM | > 100 µM | > 100 µM | > 100 µM |  |
| CCOC(=O)c1ccc(-n2[nH]nc(C(N)=O)c2=O)cc1 | > 100 µM | > 100 µM | > 100 µM | > 100 µM | > 100 µM | > 100 µM | > 100 µM | > 100 µM | > 100 µM | > 100 µM |  |
| c1ccc(/C(=N/Nc2nc3ccccc3s2)C2CCCCC2)nc1 | 14.5 µM | 70 µM | 7.32 µM | 18.9 µM | 27.3 µM | 34.2 µM | 6.01 µM | 25.5 µM | 15.4 µM | 31.3 µM |  |
| CCC/C(Cl)=N\OC(=O)Nc1ccc(F)cc1 | 29.2 µM | 4 µM | 4.12 µM | 26.7 µM | 33.1 µM | 31 µM | > 55 µM | 32.6 µM | 3.85 µM | 27.5 µM |  |
| Cc1ccc(Nc2nc3[nH]ccc3c(=O)[nH]2)cc1 | > 100 µM | > 100 µM | > 100 µM | > 100 µM | > 100 µM | > 100 µM | > 100 µM | > 100 µM | > 100 µM | > 100 µM |  |
